Results on one compound are retold here after patent US6426370B1, “Use of thiol compounds in viral inactivation” (priority 2000, dated 2002).

SMILES strings stand for the structures. Where “and” joins values, the source holds several entries; their conditions need not be identical. Equal values may be shown once.

Assay [1] deals with HBeAg (hepatitis-B virus e antigen). Nature of the assay: Enzyme immunoassay (Abbott HBe EIA) of HBeAg in HepG2-2.2.15 supernatant treated with NAC. Particulars: 50 mM NAC. In kind it is biochemical.
A further assay concerns HBsAg. As to the kind of experiment: HBsAg antigenicity of NAC-treated HBV-positive supernatant with or without dialysis. It is filed as biochemical, hepatitis B virus. Particulars: 15 min incubation with NAC, dialysis against TNE buffer at 4° C. overnight versus not dialyzed.
The subject of assay [2] is human immunodeficiency virus (HIV). Nature of the assay: Syncytia formation of H9 cells infected with HIV virions pre-incubated with NAC. It is filed as cell-based. Conditions: for Test positives p/4 (syncytia formation): virions pre-incubated with 0.09 M NAC for 2 h, 4 parallel assays. As to the method: (§1) In order to examine whether NAC influences the HIV infection of cells, HIV-permissive cells ([…]) were incubated together with HIV-positive cell culture supernatant and the syncytia formation taking place upon successful infection of the host cell was observed. The H9 cell line is a CD4+ T-cell line of human origin (Popovic et al., 1984, Science 224:497-500). The HI virions (viral titer of the original solution is 10^7 viruses/ml) were initially pre-incubated together with NAC at room temperature for two hours (final NAC concentration 0.09 M, dissolved in serum-free cell culture medium) and then mixed with cell culture medium in a decadic dilution series (10^−1 to 10^−5). The same was made analogously with the control without NAC addition. Thereafter, the thus pretreated virions (and the untreated control, respectively) were added to the H9 cell culture for two hours to enable the adsorption of the viruses. Then, the suspension was washed with NAC-free medium and 48-well cell culture plates were covered therewith. Pour parallel assays were carried out for each dilution series. The giant cell formation was observed microscopically over an observation period of 26 days and assessed on a scale from 0 (no syncytia detectable) to 3 (great number of syncytia). It can be seen in connection with the untreated control (FIG. 1) that the syncytia formation is delayed when the viral titer decreases. The degree of syncytia formation is thus directly proportional to the number of infectious viruses. While with a viral titer of 10^5 the syncytia formation starts within four days already, it is delayed by about 2 weeks when the original virus solution has been diluted 10,000 times.
The delay of giant cell formation, which is shown in FIG. 1, is due to a reduction of the number of infectious virions—because of a correlation between viral titer and the number of syncytia. It is in no case caused by an influence of the metabolism of the host cell. The reduced capability to form giant cells (FIG. 1) can be quantified as titer exponent n by observing the laws established by Spearmann-Kärber.
With a total number of 4 preparations per dilution series there is [formula]
Thus, nNAC=−2.5 follows for the titer exponent after NAC treatment. Since the dilution stage of the untreated control, where syncytia formation could no longer be observed, was not determined accurately in this experiment, the maximum value for this preparation, i.e., 10^−6 was assumed as a calculation basis. Correspondingly, the titer of the untreated control is 10^−5,5 or less. The titer after the NAC treatment is 10^−2,5.

Assay [3] has as its system HBsAg (hepatitis-B virus surface antigen). As to the kind of experiment: Enzyme immunoassay (Abbott Auszyme) of HBsAg in HepG2-2.2.15 supernatant treated with NAC. It is filed as biochemical. Conditions: 50 mM NAC. As for the experimental part: The cell culture supernatant of a HBV-producing cell line (HepG2-2.2.15 cells, Sells et al., 1984, Proc. Natl. Acad. U.S.A. 84:1005-1009) was separated from the cells and then the viral antigens (HBsAg, hepatitis-B virus “surface” antigen) of the viral envelope were identified by means of an enzyme immunoassay (EIA). In a parallel experimental assay, the cell culture supernatant was treated with NAC directly before the EIA was carried out. […] Since as is known the main antigenic domain of HBsAg is stabilized by numerous disulfide bridges, it can be inferred from this experiment that NAC effects a change in the three-dimensional structure on the virus surface, which is caused by a separation of disulfide bridges. These very viral surface structures are essential for the attachment of the virus to its host cell and thus for its infectiosity.

The next assay relates to vaccinia viruses. Nature of the assay: Plaque assay of vaccinia virus pre-incubated with NAC on CV1 cells. In kind it is cell-based. Conditions: pre-incubation with 3, 10, 30 mM NAC, assay variation ±9%.
Assay [4] relates to human immunodeficiency virus (HIV). As to the kind of experiment: p24-Ag test in cell culture medium of HIV-infected H9 cells, virions treated with NAC prior to infection. It is filed as cell-based. Particulars: for p24-Ag content in the cell culture medium, extinction at 492 nm: day 26 after infection, NAC-treated virions, exclusion limit <0.093. As for the experimental part: as §1
This reduction of the infectiosity titer could also be confirmed by means of the p24-Ag test. For this purpose, the cell culture medium was renewed four days prior to the end of the experiment and the p24-Ag content of the cell culture medium was quantified upon termination of the experiment (day 26) (TABLE I). The p24-Ag values of the untreated control were always clearly positive.

For `CC(=O)N[C@@H](CS)C(=O)O` [NAC, N-acetyl cysteine], the “recognition of HBeAg by EIA” value in assay [1] is on record as “recognized unrestrictedly”. Besides, in the assay on HBsAg, the “effect of NAC on the viruses (HBsAg antigenicity) after removing NAC by dialysis” value is “irreversible”. For the same compound, the “reduction of the viral titer, measured on the basis of syncytia formation capability” value in assay [2] (0.09 M NAC versus untreated control) is given as “at least three decimal exponents”. The “titer exponent n after NAC treatment (Spearmann-Kärber)” value in assay [2] (0.09 M NAC, 2 h, room temperature, syncytia formation) was −2.5. Besides, in assay [2] (NAC-treated virions diluted by more than 100 times (viral titer <10^4), observation period of four weeks), the “syncytia formation within the observation period” value is listed as “no longer possible to observe syncytia formation”. In addition, the “Test positives p/4 (syncytia formation)” value is listed as 4/4 in assay [2] (class limit -1 (virus dilution 10^-1)); 1/4 in assay [2] (class limit -2 (virus dilution 10^-2)); 1/4 in assay [2] (class limit -3 (virus dilution 10^-3)); 2/4 in assay [2] (class limit -4 (virus dilution 10^-4)); 0/4 in assay [2] (class limit -5 (virus dilution 10^-5)). In addition, in assay [3], the “detection of HBsAg by EIA” value is listed as “not possible”. In addition, in the assay on vaccinia viruses, the “reduction of the viral titer of the vaccinia virus suspension” value was “up to 70%”. Besides, the “p24-Ag content in the cell culture medium versus untreated control” value in assay [4] (from an HIV dilution factor of 1/100 on, day 26) is “marked reduction”. The “p24-Ag content in the cell culture medium, extinction at 492 nm” value in assay [4] (virus dilution 10^-1) was >2.0 O.D. 492 nm; in assay [4] (virus dilution 10^-5) it was 0.069 O.D. 492 nm and 0.04 O.D. 492 nm and 0.044 O.D. 492 nm.
